Measurements from patent US11464771B2, “Bromodomain and extra-terminal protein inhibitor combination therapy” (CELGENE QUANTICEL RESEARCH, INC., priority 2016, dated 2022).

Columns and labels:
[1] = Plasma protein binding, human; type: in vitro ADME
[2] = tested on: TNBR3 TNBC PDX-derived model; test: 3-D Matrigel colony formation, TNBR3; type: cell-based; settings: Homo sapiens, 7 or 14 days
Experimental: The effect of Compound A on colony formation in four PDX-derived breast cancer models was assessed using a 3-D Matrigel-based in vitro culture system. Compound A was tested at concentrations ranging from either 0.008 μM to 5 μM or 0.0016 μM to 1 μM in 5-fold increments. Colony formation was assessed after 7 days or 14 days of treatment by quantifying colony numbers by microscopy. […] The overall mean for the three TNBC models was 0.11±0.04 μM.

Cn1cc(-c2cc(S(C)(=O)=O)ccc2OCC2CC2)c2ccccc2c1=O [Compound A, 4-[2-(cyclopropylmethoxy)-5-methylsulfonylphenyl]-2-methylisoquinolin-1-one]
fraction unbound [1]: 0.098 | IC50 [2]: 80 nM
